Legend:
[1] = system: Jurkat cells; assay: Cellular cytotoxicity assay using various apoptosis/caspase activity markers and protease indicators; type: cell-based, human; conditions: indicator used for read-out, E:T 5 to 1
[2] = system: EL4 cells; assay: Flow-cytometry fluorescence cellular cytotoxicity (FCC) assay, CTL killing of peptide-pulsed target cells; type: cell-based, mouse

Bis-(N-CBZ-aspartyl-glutamyl-valyl-aspartylamide) Rhodamine 110 [Bis-(N-CBZ-DEVD amide)R22120]
% Killing ([1]; co-incubation 1 hr): 48.0%
% Killing ([1]; co-incubation 1 hr, listed as bis-(Z-DEVDamide)-Rhodamine 110): markedly lower than the other two protease indicators
% Killing ([1]; co-incubation 2 hr): 75.4%

MT246-256: irrelevant control polyoma virus peptide middle T protein epitope (SNPTYSVM, SEQ ID NO:22) (Synthetic peptide substrate.)
% of the target cells (CTO+) positive for DEVDase activity [2]: around 10%

B1: PE-labeled Annexin V: phycoerythrin labeled annexin V, cell surface marker of apoptosis (protein, UniProt P08758 2-320, looked up)
Annexin A5: AQVLRGTVTDFPGFDERADAETLRKAMKGLGTDEESILTLLTSRSNAQRQEISAAFKTLFGRDLLDDLKSELTGKFEKLIVALMKPSRLYDAYELKHALKGAGTNEKVLTEIIASRTPEELRAIKQVYEEEYGSSLEDDVVGDTSGYYQRMLVVLLQANRDPDAGIDEAQVEQDAQALFQAGELKWGTDEEKFITIFGTRSVSHLRKVFDKYMTISGFQIEETIDRETSGNLEQLLLAVVKSIRSIPAYLAETLYYAMKGAGTDDHTLIRVMVSRSEIDLFNIRKEFRKNFATSLYSMIKGDTSGDYKKALLLLCGEDD
modifications: phycoerythrin label
notes: phycoerythrin labeled annexin V, cell surface marker of apoptosis
% Killing ([1]; co-incubation 1 hr): 65.6%
% Killing ([1]; co-incubation 1 hr, listed as phycoerythine (PE) labeled annexin V): 65.5%

Reference: patent US20090263830A1, “VISUALIZATION AND QUANTITIATION OF CELLULAR CYTOTOXICITY USING CELL-PERMEABLE FLUOROGENIC PROTEASE SUBSTRATES AND CASPASE ACTIVITY INDICATOR MARKERS” (Oncoimmunin, Inc., priority 2002, published 2009)
